The nature of series [1]: Solubility of dyestuffs in water. Format: physicochemical.
Series [2] in a line: Behaviour in forming a liquid in a water/acetic acid/sulpholane solvent system. Format: physicochemical. To be noted: Table 1; ambient temperature.
Setting [3] is: Table 1, 25° C., read-out: Solubility in water at 25° C.
Where [4] appears, read: Table 3, dyestuff of Example 13 structure, chloride, 25° C., read-out: Solubility in water at 25° C.
[5] abbreviates: Table 3, dyestuff of Example 13 structure, chloride, 50° C., read-out: Solubility in water at 50° C.
Where [6] appears, read: Table 4, dyestuff of Example 19 structure, acid sulphate, 25° C., read-out: Solubility in water at 25° C.
Setting [7] is: Table 4, dyestuff of Example 19 structure, acid sulphate, 50° C., read-out: Solubility in water at 50° C.

Read-outs that look alike come from different tables or passages of the source.

Consider `O=[N+]([O-])c1ccc(N=Nc2ccc(NCC[n+]3ccccc3)c(Cl)c2)cc1` [Pyridine (Table 1)], for which the solubility in series [1] (setting [3]) is under 2500 µg/mL. Further, the “Solubility of 1 part of dye in 1 part water 1.5 part acetic acid 1 part sulpholane” value in series [2] was “Not a solution at ambient”.

For the molecule `CCN(CC[n+]1ccccc1)c1ccc(N=Nc2ccc([N+](=O)[O-])cc2Cl)cc1` [Pyridine (Table 3)], the figures for the solubility in series [1] (setting [4]) and in series [1] (setting [5]) were 10000 µg/mL and 300000 µg/mL, respectively.

Turning to `CCN(CC[n+]1ccccc1)c1ccc(N=Nc2c(Cl)cc([N+](=O)[O-])cc2Cl)cc1` [Pyridine (Table 4)], the solubility in series [1] (setting [6]) is 10000 µg/mL; in series [1] (setting [7]) it was 20000 µg/mL. For the molecule `Cc1cccc[n+]1CCNc1ccc(N=Nc2ccc([N+](=O)[O-])cc2)cc1Cl` [α-picoline], in series [1] (setting [3]), the solubility was under 2500 µg/mL. For `Cc1cc[n+](CCNc2ccc(N=Nc3ccc([N+](=O)[O-])cc3)cc2Cl)cc1` [γ-picoline (Table 1)], the solubility in series [1] (setting [3]) was in the range of 75000 to 100000 µg/mL. The “Solubility of 1 part of dye in 1 part water 1.5 part acetic acid 1 part sulpholane” value in series [2] is given as “Not a solution at ambient”. With `CCN(CC[n+]1ccc(C)cc1)c1ccc(N=Nc2ccc([N+](=O)[O-])cc2Cl)cc1` [γ-picoline (Table 3)], the solubility turned out to be 10000 µg/mL in series [1] (setting [4]) and 240000 µg/mL in series [1] (setting [5]).

On to `CCN(CC[n+]1ccc(C)cc1)c1ccc(N=Nc2c(Cl)cc([N+](=O)[O-])cc2Cl)cc1` [γ-picoline (Table 4)], for which the figures for the solubility in series [1] (setting [6]) and in series [1] (setting [7]) were 1000 µg/mL and 5000 µg/mL, respectively.
